# Laboratory results taken from patent publication US11236086B2, “Substituted pyrrolopyridines as inhibitors of activin receptor-like kinase” (BLUEPRINT MEDICINES CORPORATION, priority 2017, dated 2022).
# Molecular target: T1, ALK2R206H (mutant ALK2, N-terminally tagged with GST) (Homo sapiens, UniProt Q04771, R206H)
# T1 construct: purchased Carna Bioscience or ThermoFisher 09-148 or PV6232
# T1 sequence (Q04771 21-509 R206H): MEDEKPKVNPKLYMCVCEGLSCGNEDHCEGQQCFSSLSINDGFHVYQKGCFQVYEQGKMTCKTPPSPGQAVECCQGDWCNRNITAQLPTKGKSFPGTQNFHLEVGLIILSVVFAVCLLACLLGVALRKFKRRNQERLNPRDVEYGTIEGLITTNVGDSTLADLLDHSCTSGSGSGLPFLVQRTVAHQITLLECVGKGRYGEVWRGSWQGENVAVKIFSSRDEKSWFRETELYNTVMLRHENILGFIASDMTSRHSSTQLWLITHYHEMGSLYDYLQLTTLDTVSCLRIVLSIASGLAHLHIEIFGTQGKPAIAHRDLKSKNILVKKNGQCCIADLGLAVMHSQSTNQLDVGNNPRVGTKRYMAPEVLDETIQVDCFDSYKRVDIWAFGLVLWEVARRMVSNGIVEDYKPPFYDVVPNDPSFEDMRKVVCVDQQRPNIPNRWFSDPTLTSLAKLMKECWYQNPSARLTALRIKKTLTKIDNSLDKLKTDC
# Assay: ALK binding assay (LANTHASCREEN TR-FRET competitive binding, displacement of Kinase Tracer 178)
# Settings: read-out: Binding Assay (IC50 class)
# Procedure: Example 10 ALK Binding Assays
# Binding assays were conducted using the LANTHASCREEN® technology (ThermoFisher Scientific). LANTHASCREEN® is a competitive binding, displacement assay where the assumed steady state occupancy of the binding site is measured using a time-resolved, fluorescence energy transfer (TR-FRET) readout between a fluorescent tracer and Europium (Eu)-tagged antibody specific for the kinase or expression tag (e.g., GST) of interest. Displacement of the tracer by a compound of the disclosure reduces, and is directly proportional to, the TR-FRET between the tracer and the antibody. Tracer was used at a concentration equal to or near to its Kd for the kinase. The Eu-tagged antibody was typically used in excess to ensure sampling of all competent protein capable of binding the tracer.
# For these assays, a mutant ALK2 was used that was N-terminally tagged with GST (ALK2R206H Carna Bioscience (09-148) or ALK2R206H ThermoFisher (PV6232)); a Eu-tagged anti-GST antibody (ThermoFisher) and Kinase Tracer 178 (ThermoFisher).
# In all cases, the kinase (2-5 nM) was mixed with Eu-tagged antibody (4-10 nM) mix and tracer (50 nM) were incubated with test compound titrations prepared in 100% DMSO (1% DMSO final) for 30 minutes at room temperature. All reagents and compounds were dissolved in Kinase Buffer A (ThermoFisher) to achieve the final concentration. The plates were read on a PerkinElmer EnVision® multilabel plate reader or a BioTek Synergy Neo plate reader, and the assay signal was represented as a ratio of the TR-FRET emission (λex 330 nm, λ^em […] and λ^em 665 nm). This readout was normalized to 0% and 100% inhibited control wells, plotted against inhibitor concentration, and fitted to a 4-parameter log dose response curve.
# The results of this assay are shown in Table 3 in the column labelled “Binding Assay” wherein “A” represents an IC50 of less than or equal to 10 nM; “B” represents an IC50 of greater than 10 nM and less than or equal to 50 nM; and “C” represents an IC50 of greater than 50 nM. Blank values in the table indicate that the particular compound was not tested in this assay.
row,IC50,SMILES
1,10 to 50 nM,CCC(=O)c1c(-c2cn(C)c(C)n2)[nH]c2nccc(N3CCN(C(=O)OC4COC4)CC3)c12 [Compound 404]
2,≤ 10 nM,CCN1CCN(c2ccc(-c3cc4c(N5CCN(C(=O)C6CC6)CC5)ccnc4[nH]3)c3ncccc23)CC1 [Compound 471]
3,10 to 50 nM,O=C(C1CC1)N1CCN(c2ccnc3[nH]c(-c4ccc(OCc5ccccc5)cc4)cc23)CC1 [Compound 406]
4,10 to 50 nM,Cc1ccc(-c2cc3c(N4CCN(C(=O)C5CC5)CC4)ccnc3[nH]2)c(F)c1 [Compound 63]
5,≤ 10 nM,CC(C)(O)c1csc(-c2cc3c(N4CCN(C(=O)OC5COC5)CC4)ccnc3[nH]2)n1 [Compound 379]
6,10 to 50 nM,CCN1CCN(c2ccc(-c3cc4c(N5CCN(C(=O)C6CC6)CC5)ccnc4[nH]3)c(OC)c2)CC1 [Compound 454]
7,10 to 50 nM,Cc1ccc(-c2cc3c(N4CCN(C(=O)C5CC5)CC4)ccnc3[nH]2)cc1 [Compound 16]
8,≤ 10 nM,Cc1nc(-c2[nH]c3nccc(N4CCN(C(=O)OC5COC5)CC4)c3c2C#N)co1 [Compound 216]
9,10 to 50 nM,O=C(C1CC1)N1CCN(c2ccnc3[nH]c(-c4ccccc4F)cc23)CC1 [Compound 18]
10,≤ 10 nM,N#Cc1ncc(-c2cc3c(N4CCN(C(=O)OC5COC5)CC4)ccnc3[nH]2)s1 [Compound 229]
11,≤ 10 nM,Cc1[nH]ncc1-c1cc2c(N3CCN(C(=O)OC4COC4)CC3)ccnc2[nH]1 [Compound 92]
12,≤ 10 nM,Cn1cc(-c2cc3c(N4CCN(C(=O)OCCOC5CCCCC5)CC4)ccnc3[nH]2)cn1 [Compound 405]
13,≤ 10 nM,CCOC(=O)N1CCN(c2ccnc3[nH]c(-c4ccc(C5(OC)CCOCC5)cn4)cc23)CC1 [Compound 430]
14,≤ 10 nM,Cn1cnc(-c2cc3c(N4CCN(C(=O)O[C@@H]5CC(F)(F)C5(F)F)CC4)ccnc3[nH]2)c1 [Compound 400]
15,10 to 50 nM,O=C(C1CC1)N1CCN(c2ccnc3[nH]c(-c4ccc(Cl)cc4)cc23)CC1 [Compound 84]
16,≤ 10 nM,CC(C)OCCOC(=O)N1CCN(c2ccnc3[nH]c(-c4cnn(C)c4)cc23)CC1 [Compound 247]
17,≤ 10 nM,Cc1nc(-c2[nH]c3nccc(N4CCN(C(=O)OC5COC5)CC4)c3c2C)sc1C [Compound 318]
18,10 to 50 nM,O=C(C1CC1)N1CCN(c2ccnc3[nH]c(-c4ccc(C5CCCCC5)cc4)cc23)CC1 [Compound 319]
19,10 to 50 nM,"O=C(OC1COC1)N1CCN(c2ccnc3[nH]c(-c4nc(C(F)(F)F)cs4)cc23)CC1 [Compound 410, oxetan-3-yl 4-(2-(4-(trifluoromethyl)thiazol-2-yl)-1H-pyrrolo[2,3-b]pyridin-4-yl)piperazine-1-carboxylate]"
20,10 to 50 nM,Cn1cc(-c2cc3c(N4CCN(C(=O)OCCC(C)(C)C)CC4)ccnc3[nH]2)cn1 [Compound 240]
21,≤ 10 nM,Cc1c(-c2cc3c(N4CCN(C(=O)OC5COC5)CC4)ccnc3[nH]2)cnn1C [Compound 156]
22,10 to 50 nM,CCOC(=O)N1CCN(c2ccnc3[nH]c(-c4cnn(C)c4)c(S(C)(=O)=O)c23)CC1 [Compound 339]
23,≤ 10 nM,Cn1cc(-c2cc3c(N4CCN(C(=O)OCC5CC5)CC4)ccnc3[nH]2)cn1 [Compound 80]
24,≤ 10 nM,O=C(OC1COC1)N1CCN(c2ccnc3[nH]c(-c4cn[nH]c4)cc23)CC1 [Compound 36]
25,≤ 10 nM,Cn1cc(-c2cc3c(N4CCN(C(=O)[C@H]5C[C@H](F)C5)CC4)ccnc3[nH]2)cn1 [Compound 94]
26,> 50 nM,Cc1n[nH]c(C)c1-c1cc2c(N3CCN(C(=O)OC4COC4)CC3)ccnc2[nH]1 [Compound 157]
27,≤ 10 nM,Cc1nc(-c2cc3c(N4CCN(C(=O)OC5CSC5)CC4)ccnc3[nH]2)cs1 [Compound 261]
28,10 to 50 nM,CCC(C)CC(=O)N1CCN(c2ccnc3[nH]c(-c4cnn(C)c4)cc23)CC1 (stereo not shown) [Compound 83]

row,IC50,SMILES
1,10 to 50 nM,COc1ccc(-c2cc3c(N4CCN(C(=O)C5CC5)CC4)ccnc3[nH]2)cn1 [Compound 62]
2,≤ 10 nM,CCc1c(-c2cnn(C)c2)[nH]c2nccc(N3CCN(C(=O)OC4COC4)CC3)c12 [Compound 237]
3,10 to 50 nM,CCOC(=O)N1CCN(c2ccnc3[nH]c(-c4cnn(C)c4COC)cc23)CC1 [Compound 166]
4,≤ 10 nM,CCOCC(C)OC(=O)N1CCN(c2ccnc3[nH]c(-c4cnn(C)c4)cc23)CC1 (stereo not shown) [Compound 246]
5,10 to 50 nM,CCS(=O)(=O)CCOC(=O)N1CCN(c2ccnc3[nH]c(-c4cnn(C)c4)cc23)CC1 [Compound 384]
6,> 50 nM,COc1ccccc1-c1cc2c(N3CCN(C(=O)C4CC4)CC3)ccnc2[nH]1 [Compound 58]
7,10 to 50 nM,Cc1nnc(-c2cc3c(N4CCN(C(=O)OC5COC5)CC4)ccnc3[nH]2)o1 [Compound 110]
8,10 to 50 nM,Cn1cc(-c2cc3c(N4CCN(C(=O)[C@H]5CC[C@@H](O)CC5)CC4)ccnc3[nH]2)cn1 [Compound 223]
9,≤ 10 nM,CCOC(=O)N1CCN(c2ccnc3[nH]c(-c4cc(C)ns4)cc23)CC1 [Compound 47]
10,10 to 50 nM,CCOC(=O)N1CCN(c2ccnc3[nH]c(-c4nn(C)cc4C)cc23)CC1 [Compound 42]
11,≤ 10 nM,Cc1nc(-c2[nH]c3nccc(N4CCN(C(=O)OC5COC5)CC4)c3c2Cl)sc1C [Compound 391]
12,≤ 10 nM,Cn1cc(-c2cc3c(N4CCN(C(=O)O[C@@H]5CCOC5)CC4)ccnc3[nH]2)cn1 [Compound 154]
13,10 to 50 nM,Cn1cc(-c2cc3c(N4CCN(C(=O)OCCS(C)(=O)=O)CC4)ccnc3[nH]2)cn1 [Compound 338]
14,≤ 10 nM,Cn1cc(-c2cc3c(N4CCN(C(=O)OCCOC(C)(C)C)CC4)ccnc3[nH]2)cn1 [Compound 314]
15,10 to 50 nM,O=C(C1CC1)N1CCN(c2ccnc3[nH]c(-c4cccc(F)c4)cc23)CC1 [Compound 17]
16,≤ 10 nM,Cn1cc(-c2cc3c(N4CCN(C(=O)[C@H]5CCOC5)CC4)ccnc3[nH]2)cn1 [Compound 78]
17,10 to 50 nM,Cn1cc(-c2cc3c(N4CCN(C(=O)C(C)(C)CO)CC4)ccnc3[nH]2)cn1 [Compound 101]
18,10 to 50 nM,Cc1c(-c2cc3c(N4CCN(C(=O)C5CC5)CC4)ccnc3[nH]2)cnn1C [Compound 22]
19,10 to 50 nM,CCc1ccc(-c2cc3c(N4CCN(C(=O)C5CC5)CC4)ccnc3[nH]2)c(Cl)c1 [Compound 226]
20,≤ 10 nM,COc1ccc(-c2cc3c(N4CCN(C(=O)C5CC5)CC4)ccnc3[nH]2)c(F)c1 [Compound 138]
21,≤ 10 nM,CC(C)(C)OC(=O)NC1(c2ccc(-c3cc4c(N5CCN(C(=O)C6CC6)CC5)ccnc4[nH]3)cc2)CC1 [Compound 463]
22,≤ 10 nM,N#Cc1cc(C2(O)CCOCC2)ccc1-c1cc2c(N3CCN(C(=O)OC4COC4)CC3)ccnc2[nH]1 [Compound 465]
23,10 to 50 nM,O=C(C1CC1)N1CCN(c2ccnc3[nH]c(-c4ccccc4)cc23)CC1 [Compound 3]
24,10 to 50 nM,CCCOc1ccc(-c2cc3c(N4CCN(C(=O)C5CC5)CC4)ccnc3[nH]2)cc1 [Compound 196]
25,≤ 10 nM,O=C(OC1COC1)N1CCN(c2ccnc3[nH]c(-c4nc5c(s4)COCC5)c(Cl)c23)CC1 [Compound 443]
26,> 50 nM,Cc1ccccc1-c1cc2c(N3CCN(C(=O)C4CC4)CC3)ccnc2[nH]1 [Compound 14]
27,10 to 50 nM,Cc1nsc(-c2cc3c(N4CCN(C(=O)OC5COC5)CC4)ccnc3[nH]2)n1 [Compound 182]
